Results taken from US10717964B2, “Synthetic methylotrophy to liquid fuels and chemicals” (University of Delaware, priority 2014, dated 2020).

Legend:
[1] = system: formate dehydrogenase (FDH, fdh) from Clostridium carboxidivorans P7T; settings: read-out: Km (for NADH); cited from earlier work
[2] = system: E. coli pACM4_pFRM_GFP+pETM6-BstMDH; assay type: cell-based; settings: 2000 and 4000 mM methanol, MOPS+0.1% glucose
Source text: Overnight LB cultures were transferred to MOPS+0.1% glucose for the experiment.

E. coli pACM4_pFRM_GFP = assay type: cell-based; settings: 500 and 1000 μM HCHO, MOPS+0.1% glucose
Source text: (§1) GFP expression correlated with HCHO concentration over time. Overnight LB cultures were transferred to MOPS+0.1% glucose for the experiment.

E. coli pETM6_Pfrm_GFP = assay type: cell-based; settings: 2 and 4 mM HCHO, MOPS+0.1% glucose
Source text: as §1

[3] = system: E. coli Rosetta empty vector control (pET21_Empty); experiment: Growth of empty vector control E. coli in media spiked with formaldehyde; assay type: cell-based; settings: LB plus formaldehyde (2 mM) or mixture of M9 and LB plus formaldehyde (1.5 mM)
Protocol: FIGS. 42A-B show growth of E. coli expressing HPS and PHI genes from M. gastri. The ability of E. coli to grow in A) LB or B) mixed M9:LB (3:1) spiked with formaldehyde was assessed. Log phase cultures of E. coli harboring pET_M.g.PHI_HPS (circles) or pET21_Empty (squares) were induced with 0.5 mM IPTG for 3 h before being diluted into test media containing 2 mM formaldehyde (LB) or 1.5 mM formaldehyde (M9:LB). Aliquots were taken from the cultures at the indicated time points to determine the optical density (OD600). Arrows indicate times in which the cultures were spiked with (A) 2 mM or (B) 1.5 mM formaldehyde.
Primers were designed to amplify the Mycobacterium gastri phi-hps operon, which encodes the genes necessary to fix formaldehyde to ribulose-5-phosphate yielding hexulose-6-phosphate, and then convert […] to fructose-6-phosphate. Genes were amplified and initially cloned into the expression vector pET21a (Novagen). This vector utilizes the T7 promoter, and was transformed into the Rosetta strain of E. coli. E. coli Rosetta expressing the M. gastri PHI-HPS operon was compared with an empty vector control for growth in LB with 2 mM formaldehyde (FIG. 42A-B). […] When the same strains were tested in M9 minimal media containing only formaldehyde (0.25 mM) as the sole carbon source, no increase in OD600 was observed (FIG. 43).

[4] = substrate: CO; experiment: cells, lysate or membranes named; settings: other: crude cell extracts of E. coli, in vitro

NC(=O)C1=CN([C@@H]2O[C@H](COP(=O)(O)OP(=O)(O)OC[C@H]3O[C@@H](n4cnc5c(N)ncnc54)[C@H](O)[C@@H]3O)[C@@H](O)[C@H]2O)C=CC1 [NADH]
Km [1]: 50 µM

CO [methanol]
growth [2]: Retarded growth

C=O [formaldehyde]
growth (E. coli pACM4_pFRM_GFP): Retarded growth | growth (E. coli pETM6_Pfrm_GFP): No growth was observed | growth [3]: unable to grow

B1: methanol dehydrogenase MDH1 (MDH) from Bacillus stearothermophilus (Geobacillus stearothermophilus) (protein)
chain: MKAAVVNEFKKALEIKEVERPKLEEGEVLVKIEACGVCHTDLHAAHGDWPIKPKLPLIPGHEGVGIVVEVAKGVKSIKVGDRVGIPWLYSACGECEYCLTGQETLCPHQLNGGYSVDGGYAEYCKAPADYVAKIPDNLDPVEVAPILCAGVTTYKALKVSGARPGEWVAIYGIGGLGHIALQYAKAMGLNVVAVDISDEKSKLAKDLGADIAINGLKEDPVKAIHDQVGGVHAAISVAVNKKAFEQAYQSVKRGGTLVVVGLPNADLPIPIFDTVLNGVSVKGSIVGTRKDMQEALDFAARGKVRPIVETAELEEINEVFERMEKGKINGRIVLKLKED
Km [4]: 27000 µM
